The source of these data is US20090311176A1, “2-Arylpyrazolo[L,5-Alpha] Pyrimidin-3-YL Acetamide Derivatives as Ligands for Translocator Protein (18 Kda)” (The University of Sydney, priority 2006, published 2009).

For data set [1], the system named is peripheral benzodiazepine receptor. The note with it: monkey occipital cortex, PET; cited from earlier work.
A further data set has as its system CBR. The experiment in a line: CBR binding with [^3H]Ro 15-1788, rat brain tissue. The settings on record: for affinity for the CBR (in words): [^3H]Ro 15-1788, rat brain tissue; for Ki: [^3H]Ro 15-1788 radioligand, rat brain tissue.
Data set [2] deals with T1, TSPO (Rattus norvegicus, UniProt P16257).
T1 construct: from tissue; host or cells: living rat; peripheral tissues and brain regions
The experiment in a line: Ex vivo biodistribution of [^18F]DPA-714 in QA lesioned rats. The settings on record: pre-injection 15 min before radioligand; PK 11195 5 mg/kg, DPA-714 and DPA-713 1 mg/kg.
Experimental: Adult male Wistar rats weighing 300-320 g (Janvier, Le Genest-St-Isle, France) were used for ex vivo experiments.
Quinolonic acid (QA) lesions: Rats were anesthetised with isoflurane (4%, 500 mL/min), placed on a stereotaxic apparatus (Stoelting, Phymep, Paris, France) and were maintained under isoflurane 2% (500 mL/min) during surgery. The skull was exposed and small holes were made with use of a dental drill. […] A cannula (gauge 25, Hamilton, Massy, France) was inserted and a solution of QA (300 nmol in 2 μL phosphate buffer, pH 7.4) was infused at a flow rate of 0.5 μL/min. The syringe was left in place for 4 minutes before being removed to avoid backflow of QA. The bone was filled in with wax and the scalp was then sutured.
For peripheral tissue, results were expressed as the ratio (% ID/g tissue)/(% ID/g blood)±SEM. For brain, results were expressed as the ratio (% ID/g cerebral region)/(% ID/g cerebellum)±SEM. Student t test was performed when the number of data was ≧5. Statistic significance was considered for p<0.05.

Data set [3] is described as follows: Log D determined via HPLC. The format is physicochemical.
In data set [4] the test system is TSPO. The experiment in a line: In vivo [^18F]DPA-714 baboon PET studies (baseline, blocking, displacement). Further details: species or system Papio hamadryas baboon.
Experimental: This dual modality device has a fully-3D PET scanner with 24 crystal rings and a dual slice CT scanner in the same gantry. It yields a reconstructed PET spatial resolution of 6.3 mm full width at half maximum (FWHM) at the centre of the field of view. The baboon was initially anaesthetized with ketamine (8 mg/kg, im). Anaesthesia was maintained with the use of an iv infusion of ketamine (Parnell Laboratory, Australia) in saline at a dose rate of 0.2 mg ketamine/kg/min. The baboon also received MgSO4 (2 mL iv) given over half an hour plus atropine (1 mg im) plus maxalon (5 mg im). The head of the baboon was immobilised with plastic tape to minimise motion artifacts. A CT scan of the head was completed prior to radioligand injection. Acquisition of the PET data in list mode was commenced just prior to radioligand injection and continued for a period of 60 min. […] At the conclusion of each study the list mode data were sorted into a dynamic scan comprising 54 frames (20×30 s, 30×60 s and 4×300 s). […] The radioligand uptake was converted to units of percent injected dose per volume of brain tissue (% dose/mL) and plotted against time.
Decay corrected time activity curves representing the variation in ligand concentration vs. time were constructed from selected slices for regions of interest over the thalamus, cerebellum, striaturn, cortex, skull and whole brain. After the list-mode acquisition, a whole body PET-CT scan was performed, 2 minutes at each of the six bed positions, to determine other sites of radioligand uptake.
Data set [5] can be described thus: In-vivo stability of [^18F]DPA-714 in rat plasma (TLC). The note with it: 2 h post tracer injection.
Data set [6] addresses T2, peripheral benzodiazepine receptor (PBR) (Rattus norvegicus, UniProt P16257).
T2 construct: from tissue; host or cells: living rat (brain, PET and ex vivo biodistribution)
The experiment in a line: PET in rat model of HSV encephalitis. The format is in vivo. The note with it: olfactory and retrograde brain areas where HSV-1 accumulates.
Text: Male Wistar rats were intranasally inoculated with the herpes simplex virus type-1(10^7 PFU in 1001 PBS) or PBS (control). Within a week following inoculation, replicating virus migrated into the brain and induced neuroinflammation.

In another data set the test system is Sprague-Dawley rat. The experiment in a line: Single intravenous dose toxicity study in the rat. The format is in vivo. On the procedure: The study involved 2 groups of […] SPF Sprague-Dawley rats (each of 5 males and 5 females), 7 weeks old and weighing between 193.1 g and 215 g for males and between 160.6 g and 180.1 g for females on the day of randomisation. Animals were purchased from Charles River Laboratories France (Domaine des Oncins—69592 L'Arbresle Cedex, France).
Animals were weighed on the day of randomisation, on D7, D14 and D15 (day of necropsy).
General observations were performed on D1, 60 minutes±30 minutes after dosing, again between 3 and 4 hours post-dose and then once a day for 14 days. Functional and neurobehavioural tests were also assessed on D1, 60 minutes±30 minutes after dosing and then on D7 and D 14. Mortality was recorded twice a day for 14 days. All animals surviving at the end of the 14-day period were submitted to gross necropsy.

Another data set deals with Rat glioma C6 cells. The data set is described as follows: Steroid biosynthesis (pregnenolone) assay in C6 cells. The note with it: 40 μM. It is filed as cell-based. The procedure: All compounds were used at the same concentration (40 μM); at the end of the incubation period (2 h), the amount of pregnenolone was quantified by radio immunoassay (RIA). The values are the mean of at least three determinations.
Rat glioma C6 cells were cultured in Dulbecco's modified Eagle's medium supplemented with 10% FBS, 2 mM L-glutamine, 100 units/mL penicillin and 100 μg/mL streptomycin. Cultures were maintained in a humidified atmosphere of 5% CO2/95% air at 37° C.
C6 cells were seeded in 24-well plates at a density of ˜1×10^6 cells/well in a final volume of 1 ml. Prior to measurement of pregnenolone production the cells were washed three times with a simple salts medium consisting of 140 mM NaCl, 5 mM KCl, 1.8 mM CaCl2, 1 mM MgSO4, 10 mM glucose, 10 mM HEPES/NaOH, pH 7.4, plus 0.1% BSA. During experiments, cells were incubated with this simple salts medium in an air incubator at 37° C. […] At the end of the incubation period (2 h) the cell medium was retained and centrifuged at 1500 g for 10 min. The amount of pregnenolone secreted into the medium was quantified by radio immunoassay (RIA), using an antibody obtained from ICN Biochemical Inc., Calif., USA, under the conditions recommended by the supplier.

Usually Ki stands for a measure of affinity in units of concentration, obtained from inhibition or displacement. For orientation: chromatographic logD means a lipophilicity value derived from retention on a column.

As to `COc1ccc(O[11CH3])c(CN(C(C)=O)c2cc(F)ccc2Oc2ccccc2)c1` [[^11C]DAA1106], in [1], the “binding compared with [^11C](R)-PK 11195” value was “four times greater”.

Regarding `CCC(C)N(C)C(=O)c1cc2ccccc2c(-c2ccccc2Cl)n1` (stereo not drawn) [PK 11195], in the data set with CBR, the “affinity for the CBR (in words)” value is listed as “negligible” and the Ki was over 10000 nM. Also, the “inhibition of [^18F]DPA-714 uptake in peripheral tissues by pre-treatment” value on TSPO [2] is “significant inhibition of radioligand uptake in the heart, bone and liver but not in the adrenals and muscle”. In data set [3], this compound had a chromatographic logD of 3.35.

As to `CCN(CC)C(=O)Cc1c(-c2ccc(OCC[18F])cc2)nn2c(C)cc(C)nc12` [[^18F]DPA-714], the “uptake in the baboon skull” value with TSPO [4] (baseline PET study) is on record as “No uptake”. Besides, the “blood brain barrier penetration / accumulation in the brain” value with TSPO [4] (baseline PET study, 100 MBq i.v., baboon) is “capable of penetrating the blood brain barrier with considerable accumulation in the brain”. In addition, the “time to maximum uptake in whole baboon brain” value in the data set with TSPO [4] (baseline study, time activity curve) is “within ten minutes”. Besides, in the data set on TSPO [4] (whole body PET after brain imaging), the “whole body uptake in the heart, adrenals and salivary glands” value is listed as “high uptake”. Further, the “radioactivity in rat plasma consisting of the parent compound” value in data set [5] is reported as 78±1%.

For the compound `CCC(C)N([11CH3])C(=O)c1cc2ccccc2c(-c2ccccc2Cl)n1` (stereo not drawn) [[^11C]PK11195], the “uptake in HSE rats versus control (in words)” value in data set [6] is listed as “not significantly increased”.

As to `CCN(CC)C(=O)Cc1c(-c2ccc(OCCF)cc2)nn2c(C)cc(C)nc12` [DPA-714, N,N-Diethyl-2-{2-[4-(2-fluoro-ethoxy)-phenyl]-5,7-dimethyl-pyrazolo[1,5-a]pyrimidin-3-yl}-acetamide], the “displacement of [^18F]DPA-714 from whole baboon brain” value in the data set with TSPO [4] (cold DPA-714 1 mg/kg at 20 minutes post injection) was “complete washout of the radioligand”. Further, in the data set with TSPO [4] (cold DPA-714 at 20 minutes after radioligand, data not shown), the “displacement of [^18F]DPA-714 binding in peripheral regions” value is listed as “complete displacement”. Besides, the toxicity signs overall entry with Sprague-Dawley rat (administered once i.v. at 5 mL/kg, batch No. 140306) is listed as “did not induce any toxicity sign”. Besides, in the data set on Sprague-Dawley rat (rat, in vivo, iv), the LD50 entry is “higher than 5 mL/kg”. For the same compound, in the data set with CBR, the “affinity for the CBR (in words)” value is “negligible” and the Ki is over 10000 nM. Also, the chromatographic logD in data set [3] came to 2.44. For the same compound, the “pregnenolone synthesis above baseline” value in the data set with Rat glioma C6 cells (2 h, C6 glioma rat cells, RIA) is given as 80%. Further, the “activity at stimulating neurosteroid synthesis compared with PK 11195” value with Rat glioma C6 cells (same assay) is recorded as “twice more active”.

As for `CCN(CC)C(=O)Cc1c(-c2ccc(OC)cc2)nn2c(C)cc(C)nc12` [DPA-713, N,N-Diethyl-2-[2-(4-methoxy-phenyl)-5,7-dimethylpyrazolo[1,5-a]pyrimidin-3-yl]-acetamide], in the data set with CBR, the “affinity for the CBR (in words)” value is reported as “negligible” and the Ki was over 10000 nM. The compound further yielded a chromatographic logD in data set [3] of 2.44. In addition, the “effect on steroidogenesis (in words)” value with Rat glioma C6 cells (2 h, C6 glioma rat cells) is “no effect”.
